Test results as given in paper PMC4575030 (PLoS ONE, 2015).

Tests used:
Aδ-fiber nociceptors = test: In vivo teased-fiber recording from tibial nerve after CFA, Aδ-fibers; design: species or system rat; settings: i.v. 2.5 mg
Experimental: A total of 55 adult, male, Sprague–Dawley rats (Harlan, Indianapolis, IN) weighing 300–350 g were used for electrophysiology. To ensure that electrophysiology studies were performed on rats with mechanical hyperalgesia, behavioral measures of mechanical hyperalgesia were obtained before and at 24 h after administration of CFA (and just prior to the electrophysiological studies). Mechanical hyperalgesia was assessed by determining the frequency of paw withdrawal evoked by mechanical stimulation using a 26 g Semmes-Weinstein von Frey monofilament (Stoelting, Wood Dale, IL). Rats were placed on an elevated wire mesh platform under individual plastic cages and acclimated to the testing environment for 30 minutes prior to testing. The monofilament was applied to the mid-plantar surface of the hindpaw ten times for 1–2 s each with an inter-stimulus interval of approximately 5–10 s and the paw withdrawal frequency (percent) was determined. Baseline measures were determined for each rat for three consecutive days prior to injection of CFA. […]
Recordings were made from cutaneous afferent fibers of the left tibial nerve using a teased-fiber approach. […] Teased fibers were placed onto a tungsten wire electrode and action potentials were recorded extracellularly. […] Responses of individual fibers were analyzed off-line using the Spike2 data analysis program (Cambridge Electronic Design, Cambridge, UK). […]

[1] = test system: rat spinal nerve ligation model; test: Tactile allodynia following spinal nerve ligation (SNL); type: in vivo; settings: 30 mg/kg, 120 min after dosing, day 21 after SNL; not statistically significant (p = 0.99)
Excerpt: A decrease in tactile response threshold, using calibrated von Frey filaments (Stoelting Co., Wood Dale, IL), was used as a measure of tactile allodynia following spinal nerve ligation (SNL). Prior to surgery, each animal underwent baseline testing to determine suitability for the assay. Briefly, animals were placed on a raised platform with a grid meshed floor. The distance between the mesh was ¼”. Once acclimated, each animal received a series of trials according to the up-down method described by Dixon. Animals showing a response to less than 4 g were deemed already sensitive to the stimulus and were removed. A maximal fiber of 15 g was employed as a cut-off threshold. Surgery was then performed with a procedure slightly modified by that reported by Kim and Chung. Briefly, the left L5 spinal nerve was carefully isolated from the surrounding tissue. Using 5–0 silk suture, a tight ligature was placed around L5 nerve. Muscle and skin were then closed using 4–0 absorbable suture and wound clips. Animals were allowed to recover and were carefully monitored for seven days to ensure proper healing and ensure there was no mutilation of the affected limb. On day 21 post-surgery, animals were again tested to ensure the development of tactile allodynia. […] Animals were then randomized into groups and dosed with the test compound, gabapentin, or vehicle and assessed as stated above. […]

naïve rats = test: Open field activity (basic movement); type: in vivo, rat; settings: formalin-naïve rats
Experimental: Basic movement was measured using the Photobeam Activity System Open Field (San Diego Instruments, San Diego, CA) equipped with 48 infrared photocell emitters and detectors. Photobeams used to measure vertical movement were positioned 14 cm above the test chamber floor. Each testing chamber was made of Plexiglas (41 x 41 x 36 cm) and was devoid of any bedding. At the beginning of the test session, each animal was placed in a separate testing chamber and the room lights were turned off. Basic movement was measured for 30 minutes.

Q: How did the “Mechanical response thresholds of Aδ-fiber nociceptors” value (Aδ-fiber nociceptors) turn out when `CC(=O)Nc1cccc(Nc2ncnc(N3CCC(OCc4ccc(OC(F)(F)F)cc4)CC3)n2)c1C` [Compound 52, N-(2-methyl-3-((4-(4-((4-(trifluoromethoxy)benzyl)oxy)-1-piperidinyl)-1,3,5-triazin-2-yl)amino)phenyl)acetamide] was run?
A: The value was “Neither vehicle nor compound 52 altered”.

Q: What about the “Rate of ongoing spontaneous activity of Aδ-fiber nociceptors” value (Aδ-fiber nociceptors) of the same compound?
A: Its value is “did not reduce the rate of ongoing spontaneous activity”.

Q: What about the “Reversal of tactile allodynia compared to the vehicle group” value [1] of the same compound?
A: Its value is 15%.

Q: What about the “Decrease in basic movement” value (naïve rats; 3 mg/kg p.o.) of the same compound?
A: Its value is 3%.

Q: What about the “Decrease in basic movement” value (naïve rats; 10 mg/kg p.o., negative value = increase) of the same compound?
A: The value was 11%.

Q: What about the “Decrease in basic movement” value (naïve rats; 30 mg/kg p.o.) of the same compound?
A: Its value is 54%.
